# Measured values published in patent publication US5474763A, “Reduction of hair growth” (priority 1994, dated 1995).
# Where two headings read alike, the source gives them in different places.
# Columns and labels:
# [1] = target: T1, ornithine aminotransferase (OAT) (Mesocricetus auratus, UniProt A0A1U7QEB0); assay: OAT activity assay in hair follicles (P5C formation, HPLC of DHQ); format: biochemical, hamster
# T1 construct: Assays (including the initial assays) were conducted utilizing excised hamster flank organ follicles; from tissue; host or cells: hamster flank organ hair follicles, minced, sonicated and centrifuged; supernatant assayed
# T1 sequence (A0A1U7QEB0 1-439): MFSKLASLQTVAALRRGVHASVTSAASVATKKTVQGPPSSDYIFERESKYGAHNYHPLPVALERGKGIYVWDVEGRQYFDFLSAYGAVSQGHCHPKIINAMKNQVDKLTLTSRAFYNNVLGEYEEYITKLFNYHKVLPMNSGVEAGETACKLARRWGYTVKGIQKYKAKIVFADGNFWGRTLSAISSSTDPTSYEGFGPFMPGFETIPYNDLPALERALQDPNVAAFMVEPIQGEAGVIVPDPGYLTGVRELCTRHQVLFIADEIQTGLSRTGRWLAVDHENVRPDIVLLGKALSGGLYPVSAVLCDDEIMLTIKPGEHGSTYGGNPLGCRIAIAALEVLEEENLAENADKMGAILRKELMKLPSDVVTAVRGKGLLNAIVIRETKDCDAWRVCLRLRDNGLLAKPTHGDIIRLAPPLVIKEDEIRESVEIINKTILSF
# Description: The following assay for OAT activity based on the procedure of O'Donnell et al., Analytical Biochemistry 90, 41-46 (1978) was adapted for OAT measurements in hair follicles, and can be used to evaluate the effectiveness of OAT inhibitors in reducing OAT activity.
# The product of OAT activity, pyrroline-5-carboxylic acid (P5C), was measured by reverse-phase HPLC analysis of dihydroquinazolium ion (DHQ). DHQ is a reaction product of PSC and o-aminobenzylaldehyde (OAB). The analysis was performed with a Waters 490 UV detector. The amount of DHQ formed was directly proportional to the concentration of P5C. The sensitivity of the Waters 490 UV detector had been determined to be above 100 picomoles of PSC injected and was reasonably linear.
# Initial assays of flank organ follicle OAT activity were conducted employing saturating doses of ornithine (350 mM). The OAT mediated conversion of ornithine to P5C was monitored by measuring in vitro PSC formation, resulting in time and concentration dependent increases in PSC.
# Assays (including the initial assays) were conducted utilizing excised hamster flank organ follicles. The excised hamster follicles were diluted in assay buffer (2 follicles/300 μl) and then were minced with scissors and homogenized with a sonicator. The resultant homogenate was centrifuged to obtain a cytosolic supernatant which was assayed for OAT. Samples were incubated for one hour with either Gabaculin, L-Canaline, or 5-FMOrn at 1 mM, 100 μM, 10 μM, and 1 μM concentrations. The concentration of P5C was then assayed.
# flank organs hair growth = assay: Golden Syrian hamster assay (flank organ hair mass); format: in vivo; conditions: topical, thirteen applications; for Treated (hair mass, mean ± SEM): treated flank organ
# From the text: Male intact Golden Syrian hamsters are considered acceptable models for human beard hair growth in that they display oval shaped flank organs, one on each side, each about 8 mm. in major diameter, which grow thick black and coarse hair similar to human beard hair. These organs produce hair in response to androgens in the hamster. To evaluate the effectiveness of a particular OAT inhibitor, the flank organs of each of a group of hamsters are depilated by applying a thioglycolate based chemical depilatory (Surgex). To one organ of each animal 10-25 μl. of vehicle alone once a day is applied, while to the other organ of each animal an equal amount of vehicle containing an OAT inhibitor is applied. After thirteen applications (one application per day for five days a week), the flank organs are shaved and the amount of recovered hair (hair mass) from each is weighed. Percent-reduction of hair growth is calculated by subtracting the hair mass (mg) value of the test compound treated side from the hair mass value of the vehicle treated side; the delta value obtained is then divided by the hair mass value of the vehicle treated side, and the resultant number is multiplied by 100.
# The above-described assay will be referred to herein as the "Golden Syrian hamster" assay. Preferred compositions provide an reduction in hair growth of at least about 35%, more preferably at least about 50%, and most preferably at least about 70% when tested in the Golden Syrian hamster assay.
# The vehicle used in the compositions tested was 68% deionized water, 16% absolute ethanol, 5% propylene glycol, 5% dipropylene glycol, 4% benzoyl alcohol, and 2% propylene carbonate.
# [2] = 10 μM, one hour incubation, flank organ follicle supernatant
# [3] = 100 μM, one hour incubation, flank organ follicle supernatant, read-out: Percent Inhibition (OAT)
smiles,measurement,setting,value
"NC(CF)CCC(N)C(=O)O (stereo not shown) [5-FMOrn, 6-fluoro-2,5-diaminohexanoic acid]",nm P5C formed/fol/1 hr,"[1]; 1 μM, one hour incubation",31.419 nm P5C formed/fol/1 hr
same,Percent Inhibition (OAT),"[1]; 1 μM, one hour incubation, flank organ follicle supernatant",No OAT inhibition and none
same,nm P5C formed/fol/1 hr,"[1]; 10 μM, one hour incubation",29.327 nm P5C formed/fol/1 hr
same,Percent Inhibition (OAT),[1]; [2],No OAT inhibition and none
same,nm P5C formed/fol/1 hr,"[1]; 100 μM, one hour incubation",19.562 nm P5C formed/fol/1 hr
same,nm P5C formed/fol/1 hr,"[1]; 1 mM, pH = 7.5, one hour incubation",3.334 nm P5C formed/fol/1 hr
same,Percent Inhibition (OAT),"[1]; 1 mM, pH = 7.5, one hour incubation, flank organ follicle supernatant",83.036%
same,inhibition at 100 µM,"[1]; read-out: Percent Inhibition (OAT), 100 μM, one hour incubation, flank organ follicle supernatant",0.471%
same,inhibition at 1000 µM,"[1]; read-out: Percent Inhibition (OAT), 1 mM, pH = 7.5, one hour incubation, flank organ follicle supernatant",83%
same,"% Reduction (of hair growth, mean ± SEM)",flank organs hair growth; 5% in vehicle,66.02 ± 6.30%
same,"Treated (hair mass, mean ± SEM)",flank organs hair growth; 5% in vehicle,.616 ± .15 mg
same,"% Reduction (of hair growth, mean ± SEM)",flank organs hair growth; 15% in vehicle,84.55 ± 2.47%
same,"Treated (hair mass, mean ± SEM)",flank organs hair growth; 15% in vehicle,.322 ± .07 mg
"NOCC[C@H](N)C(=O)O [Canaline, (S)-2-amino-4-amino-oxybutyric acid]",nm P5C formed/fol/1 hr,"[1]; 1 μM, one hour incubation",29.859 nm P5C formed/fol/1 hr
same,Percent Inhibition (OAT),"[1]; 1 μM, one hour incubation, flank organ follicle supernatant, listed as L-Canaline",no inhibition and none
same,nm P5C formed/fol/1 hr,"[1]; 10 μM, one hour incubation",24.096 nm P5C formed/fol/1 hr
same,Percent Inhibition (OAT),"[1]; 10 μM, one hour incubation, flank organ follicle supernatant, listed as L-Canaline",no inhibition and none
same,nm P5C formed/fol/1 hr,"[1]; 100 μM, one hour incubation",14.612 nm P5C formed/fol/1 hr
same,Percent Inhibition (OAT),"[1]; 100 μM, one hour incubation, flank organ follicle supernatant, listed as L-Canaline",25.653%
same,inhibition at 100 µM,[1]; [3],25%
same,inhibition at 1000 µM,"[1]; 1 mM, pH = 7.5, one hour incubation, flank organ follicle supernatant, read-out: Percent Inhibition (OAT)",100%
same,"% Reduction (of hair growth, mean ± SEM)",flank organs hair growth; 2% in vehicle,20.99 ± 7.70%
same,"Treated (hair mass, mean ± SEM)",flank organs hair growth; 2% in vehicle,1.553 ± .20 mg
same,"% Reduction (of hair growth, mean ± SEM)",flank organs hair growth; 10% in vehicle,44.50 ± 7.40%
same,"Treated (hair mass, mean ± SEM)",flank organs hair growth; 10% in vehicle,.790 ± .11 mg
"NC1C=CC=C(C(=O)O)C1 (stereo not shown) [Gabaculin, 3-amino-2,3-dihydrobenzoic acid]",nm P5C formed/fol/1 hr,"[1]; 1 μM, one hour incubation",19.637 nm P5C formed/fol/1 hr
same,inhibition at 1 µM,"[1]; 1 μM, one hour incubation, flank organ follicle supernatant, read-out: Percent Inhibition (OAT)",0.089%
same,nm P5C formed/fol/1 hr,"[1]; 10 μM, one hour incubation",5.057 nm P5C formed/fol/1 hr
same,Percent Inhibition (OAT),[1]; [2],74.268%
same,inhibition at 10 µM,"[1]; 10 μM, one hour incubation, flank organ follicle supernatant, read-out: Percent Inhibition (OAT)",75%
same,inhibition at 100 µM,[1]; [3],100%
same,inhibition at 1000 µM,"[1]; 1 mM, one hour incubation, flank organ follicle supernatant, read-out: Percent Inhibition (OAT)",100%
same,relative potency as OAT inhibitor,"[1]; comparison of Gabaculin, L-Canaline and 5-FMOrn",most potent inhibitor
same,"% Reduction (of hair growth, mean ± SEM)",flank organs hair growth; 10% in vehicle,43.06 ± 2.72%
same,"Treated (hair mass, mean ± SEM)",flank organs hair growth; 10% in vehicle,1.365 ± .14 mg
same,"% Reduction (of hair growth, mean ± SEM)",flank organs hair growth; 25% in vehicle,48.08 ± 5.00%
same,"Treated (hair mass, mean ± SEM)",flank organs hair growth; 25% in vehicle,1.266 ± .11 mg
